Measured values: the NIST ThermoML archive (doi:10.1021/je400839x)
± gives the expanded uncertainty stated by the source.

Assay: xn = mol fraction of the nth substance listed
Conditions: for viscosity / speed of sound / mass density: 101 kPa, Liquid; for viscosity: Concentric cylinders viscometry; for speed of sound: Pulse-echo method; for mass density: Vibrating tube method; for surface tension liquid-gas: 294 K, Pendant drop shape

CC(CC(C)(C)C)CC(C)(C)C [2,2,4,6,6-pentamethylheptane] + CCCCCCCCCCCCCCCC
viscosity (293.15 K, x1 = 0.1261): 3.1 ± 0.02 mPa·s | viscosity (293.15 K, x1 = 0.2449): 2.79 ± 0.02 mPa·s | viscosity (293.15 K, x1 = 0.4087): 2.41 ± 0.02 mPa·s | viscosity (293.15 K, x1 = 0.562): 2.09 ± 0.02 mPa·s | viscosity (293.15 K, x1 = 0.7036): 1.8 ± 0.02 mPa·s | viscosity (293.15 K, x1 = 0.8368): 1.56 ± 0.02 mPa·s | viscosity (293.15 K, x1 = 1): 1.29 ± 0.02 mPa·s | speed of sound (293.15 K, x1 = 0.1261): 1342.7 ± 1.4 m/s | speed of sound (293.15 K, x1 = 0.2449): 1327.4 ± 1.5 m/s | speed of sound (293.15 K, x1 = 0.4087): 1304.9 ± 1.6 m/s | speed of sound (293.15 K, x1 = 0.562): 1282.2 ± 1.8 m/s | speed of sound (293.15 K, x1 = 0.7036): 1259.1 ± 1.9 m/s | speed of sound (293.15 K, x1 = 0.8368): 1235.8 ± 2 m/s | speed of sound (293.15 K, x1 = 1): 1204 ± 2.2 m/s | mass density (293.15 K, x1 = 0.1261): 770.6 ± 0.3 kg/m3 | mass density (293.15 K, x1 = 0.2449): 767.8 ± 0.3 kg/m3 | mass density (293.15 K, x1 = 0.4087): 763.6 ± 0.4 kg/m3 | mass density (293.15 K, x1 = 0.562): 759.5 ± 0.4 kg/m3 | mass density (293.15 K, x1 = 0.7036): 755.3 ± 0.5 kg/m3 | mass density (293.15 K, x1 = 0.8368): 751 ± 0.5 kg/m3 | mass density (293.15 K, x1 = 1): 745.5 ± 0.6 kg/m3 | surface tension liquid-gas (x1 = 0.1261): 25.9 ± 0.4 mN/m | surface tension liquid-gas (x1 = 0.2449): 25.3 ± 0.4 mN/m | surface tension liquid-gas (x1 = 0.4087): 24.3 ± 0.4 mN/m | surface tension liquid-gas (x1 = 0.562): 23.8 ± 0.4 mN/m | surface tension liquid-gas (x1 = 0.7036): 23.1 ± 0.4 mN/m | surface tension liquid-gas (x1 = 0.8368): 22.5 ± 0.4 mN/m | surface tension liquid-gas (x1 = 1): 21.8 ± 0.4 mN/m | viscosity (303.15 K, x1 = 0.1261): 2.47 ± 0.02 mPa·s | viscosity (303.15 K, x1 = 0.2449): 2.25 ± 0.02 mPa·s | viscosity (303.15 K, x1 = 0.4087): 1.97 ± 0.02 mPa·s | viscosity (303.15 K, x1 = 0.562): 1.72 ± 0.02 mPa·s | viscosity (303.15 K, x1 = 0.7036): 1.5 ± 0.02 mPa·s | viscosity (303.15 K, x1 = 0.8368): 1.31 ± 0.02 mPa·s | viscosity (303.15 K, x1 = 1): 1.1 ± 0.01 mPa·s | speed of sound (303.15 K, x1 = 0.1261): 1305.2 ± 1.4 m/s | speed of sound (303.15 K, x1 = 0.2449): 1290 ± 1.5 m/s | speed of sound (303.15 K, x1 = 0.4087): 1267.4 ± 1.6 m/s | speed of sound (303.15 K, x1 = 0.562): 1244.5 ± 1.8 m/s | speed of sound (303.15 K, x1 = 0.7036): 1221.1 ± 1.9 m/s | speed of sound (303.15 K, x1 = 0.8368): 1197.4 ± 2 m/s | speed of sound (303.15 K, x1 = 1): 1164.9 ± 2.2 m/s | mass density (303.15 K, x1 = 0.1261): 763.8 ± 0.3 kg/m3 | mass density (303.15 K, x1 = 0.2449): 760.9 ± 0.3 kg/m3 | mass density (303.15 K, x1 = 0.4087): 756.8 ± 0.4 kg/m3 | mass density (303.15 K, x1 = 0.562): 752.6 ± 0.4 kg/m3 | mass density (303.15 K, x1 = 0.7036): 748.3 ± 0.5 kg/m3 | mass density (303.15 K, x1 = 0.8368): 743.9 ± 0.5 kg/m3 | mass density (303.15 K, x1 = 1): 738.2 ± 0.6 kg/m3 | viscosity (313.15 K, x1 = 0.1261): 2.03 ± 0.02 mPa·s | viscosity (313.15 K, x1 = 0.2449): 1.86 ± 0.02 mPa·s | viscosity (313.15 K, x1 = 0.4087): 1.64 ± 0.02 mPa·s | viscosity (313.15 K, x1 = 0.562): 1.44 ± 0.02 mPa·s | viscosity (313.15 K, x1 = 0.7036): 1.27 ± 0.01 mPa·s | viscosity (313.15 K, x1 = 0.8368): 1.11 ± 0.01 mPa·s | viscosity (313.15 K, x1 = 1): 0.941 ± 0.012 mPa·s | speed of sound (313.15 K, x1 = 0.1261): 1268.4 ± 1.4 m/s | speed of sound (313.15 K, x1 = 0.2449): 1253.3 ± 1.5 m/s | speed of sound (313.15 K, x1 = 0.4087): 1230.7 ± 1.6 m/s | speed of sound (313.15 K, x1 = 0.562): 1207.5 ± 1.8 m/s | speed of sound (313.15 K, x1 = 0.7036): 1183.8 ± 1.9 m/s | speed of sound (313.15 K, x1 = 0.8368): 1159.8 ± 2 m/s | speed of sound (313.15 K, x1 = 1): 1126.7 ± 2.2 m/s | mass density (313.15 K, x1 = 0.1261): 756.8 ± 0.3 kg/m3 | mass density (313.15 K, x1 = 0.2449): 754 ± 0.3 kg/m3 | mass density (313.15 K, x1 = 0.4087): 749.8 ± 0.4 kg/m3 | mass density (313.15 K, x1 = 0.562): 745.6 ± 0.4 kg/m3 | mass density (313.15 K, x1 = 0.7036): 741.3 ± 0.5 kg/m3 | mass density (313.15 K, x1 = 0.8368): 736.8 ± 0.5 kg/m3 | mass density (313.15 K, x1 = 1): 730.9 ± 0.6 kg/m3 | viscosity (323.15 K, x1 = 0.1261): 1.68 ± 0.01 mPa·s | viscosity (323.15 K, x1 = 0.2449): 1.55 ± 0.01 mPa·s | viscosity (323.15 K, x1 = 0.4087): 1.38 ± 0.01 mPa·s | viscosity (323.15 K, x1 = 0.562): 1.23 ± 0.01 mPa·s | viscosity (323.15 K, x1 = 0.7036): 1.09 ± 0.01 mPa·s | viscosity (323.15 K, x1 = 0.8368): 0.966 ± 0.012 mPa·s | viscosity (323.15 K, x1 = 1): 0.827 ± 0.011 mPa·s | speed of sound (323.15 K, x1 = 0.1261): 1232.5 ± 1.4 m/s | speed of sound (323.15 K, x1 = 0.2449): 1217.2 ± 1.5 m/s | speed of sound (323.15 K, x1 = 0.4087): 1194.6 ± 1.6 m/s
